Legend:
02KM cells (MyoDER) = test: 02KM myogenic induction by E2 activation of MyoDER; assay type: cell-based, porcine; conditions: 10 μM E2, 2 d induction
Procedure: 02KM myogenic induction. 02KM cells were seeded onto culture dishes coated with poly-D lysine, murine laminin and [sequence] at a density of 4.1×10^3 cells/cm^2 and cultured under 5% O2 in self-renewal medium for 3 d.

piPSC-derived myotubes = test: Calcium transient activity (Fluo-4 AM) in piPSC-derived myotubes; assay type: cell-based, porcine; conditions: 10 mM caffeine; d6 myotubes; field of view
Source text: Spontaneous and Stimuli-Induced Calcium Transient Activity in piPSC-derived myotubes. To quantify contraction cycles, myotube cultures were stained with Fluo-4 AM calcium dye, washed, and image sequences were captured by confocal microscopy. Dynamic signaling events of an entire field of view (FOV) or single cells were traced and plotted over the imaging course. [s]=seconds.

undifferentiated 02KM = test: Tolerance of undifferentiated 02KM to 5AC; assay type: cell-based, porcine
Procedure: 5AC effects. 5AC exposure prior to, during, and following E2-mediated induction of ‘MyoDER’ was introduced to enable terminal-differentiation of 02KM from myocytes into refractive, filamentous myotubes. The murine C2C12 cell line was used as positive control to screen for optimal conditions for terminal differentiation by 02KM. […] 5AC, a small-molecule epigenetic modulator, was determined previously to enable skeletal muscle transcription in cell lines non-permissive to myogenesis. Moreover, 5AC exposure was further determined to enhance terminal differentiation by the C2C12 cell line.

02K cell line [1] = test: Cell survival of differentiating 02K (phase contrast, cell adhesion, CPP32 cleavage, Annexin V); assay type: cell-based, porcine; conditions: SRM basal medium without hLIF, DOX, PD032591 and PD173074; N-2 and B-27
Procedure: Without being bound by theory or limited by any specific representative example, it was observed that simultaneous withdrawal of both DOX and the GSK3P inhibitor CHIR99021 from the culture medium supplemented with N-2 and B-27 serum replacements precipitates massive cell death of differentiating 02K parental line within 48 h hours. Withdrawal of DOX in the presence of CHIR99021 enabled survival of the differentiating 02K. Death by differentiating 02K cells in the absence of a GSK3P inhibitor and reciprocal survival in the presence thereof was confirmed by morphology, cell adhesion assay, cleaved caspase-3 accumulation, and Annexin V labeling. […] WNT signaling plays crucial roles in both mesoderm specification from the undifferentiated ground-state pluripotency, pre-myogenic enrichment from unpatterned mesoderm and terminal differentiation of committed myocytes both in vivo and in vitro. In agreement, extended culture of the 02K line in the absence of DOX, and in the presence of a GSK3P inhibitor, supported differentiation toward the pre-myogenic paraxial mesoderm, as evidenced by the expression of PAX3 and concomitant loss of POU5F1 and KLF4 expression.
CHIR99021 inhibition 1 cell death. […] 1. […]
An axis of apoptosis and differentiation is modulated by CHIR99021. […] TUBA is detected an internal protein loading control.

murine C2C12 myoblast = test: Terminal differentiation of C2C12 myoblasts scored by size and extent of myotube formation; assay type: cell-based; conditions: low-mitogen differentiation cultures (2% horse serum/DMEM)
CTNNB1 = test: Western blot of CTNNB1 and p-CTNNB1 in differentiating 02K; assay type: cell-based, porcine; conditions: 24 h differentiation milieu transition
Procedure: Cultures were exposed to 50 nM Calyculin A and 30 μM MG-132 for 3 hours prior to harvest to stabilize detectable levels of p-CTNNB1 for comparative analysis.
(§1) CHIR99021 inhibition 1 cell death. […] 1. As CHIR99021 repressed cell death, supported differentiation toward paraxial mesoderm by the differentiating 02K cell line and enhanced terminal differentiation by the C2C12 cell line, precedent was established to retain the compound in all culture stages.
(§2) CHIR99021 stabilizes CTNNB1 and supports differentiation from the ground state. […] TUBA detected as an internal protein loading control. FIG. 13A indicates ratios of p-CTNNB1/CTNNB1 bands. FIG. 13B indicates ratios of CTNNB1/TUBA bands. […] TUBA detection is shown as an internal protein loading control.

02K cell line [2] = test: Differentiation marker Western blot (PAX3, POU5F1, KLF4) in differentiating 02K; assay type: cell-based, porcine; conditions: CHIR99021 supplemented basal medium, absence of DOX
Source text: Expression levels of pluripotency markers, POU5F1 and KLF4, and the pre-myogenic paraxial mesoderm marker PAX3 in 02K cultures differentiated from the ground state in the presence of CHIR99021.
as §1, §2

Procedure for 02KM cell line: Terminal Differentiation. […] N-2 and B-27 supplements were used exclusively as serum replacements. Cultures were differentiated for up to 6 d following under 20% O2 following induction regimens (FIG. 20A).
MyoDER was detected with an antibody raised against a MyoD peptide. […] Determinants of MYF5 activation: Western blot analyses. […] MYODER-modified piPSC were cultured 3 days in self-renewal or expansion milieu. […] TUBA is detected as an internal protein loading control.
Terminal Myogenesis of Lineage-Specified piPSC. […] DO and D6 cultures were stained for myosin heavy chain (MyHC) isoforms with a pan-MyHC monoclonal antibody, clone MF20. […] Right panel: myonuclei distribution by myotube ploidy by propidium iodide labeling and flow cytometry analysis. n=3 with standard deviation shown. […] MyoD (MYOD1), myogenin (MYOG) and desmin (DES) expression, dO-d8. TUBA is detected as an internal protein loading control. […] FIG. 20G: Transmission Electron Microscopy, d6 myotubes.

Compound: C[C@]12CC[C@@H]3c4ccc(O)cc4CC[C@H]3[C@@H]1CC[C@@H]2O [E2, 17-β Estradiol]
- myogenic lineage specification (spindle-like morphology, MYOG, NCAM) (02KM cells (MyoDER)): myogenic lineage specification following 2 d induction culture was confirmed

Compound: Cn1c(=O)c2c(ncn2C)n(C)c1=O [caffeine]
- calcium transient activation (piPSC-derived myotubes): FOV calcium transient activation of d6 myotubes

Compound: Nc1ncn([C@@H]2O[C@H](CO)[C@@H](O)[C@H]2O)c(=O)n1 [5AC, 5-Aza-Cytidine]
- highest dose tolerated (undifferentiated 02KM): 250 nM
- MYF5 expression in 02KM derived myocytes (02KM cell line; 5AC 72 hours preceding DOX withdrawal and 48 hours during E2 induction): MYF5 expression was enhanced
- myotube morphology during terminal differentiation (02KM cell line; 5AC during expansion and induction regimens): formed refractive, anisotropic myotubes

Compound: Cc1c[nH]c(-c2cnc(NCCNc3ccc(C#N)cn3)nc2-c2ccc(Cl)cc2Cl)n1 [CHIR99021]
- cell survival during differentiation (02K cell line [1]): supported both cell survival during differentiation
- terminal differentiation of C2C12 into multi-nucleated myotubes (murine C2C12 myoblast): enhanced the terminal differentiation of the myogenic murine C2C12 cell line into multi-nucleated myotubes
- CTNNB1 stabilization and phosphorylation status (CTNNB1): stabilizes and modulates the phosphorylation status of the GSK3P substrate, CTNNB1
- pre-myogenic paraxial mesoderm lineage specification (PAX3 expression) (02K cell line [2]): supported pre-myogenic paraxial mesoderm lineage specification of differentiating 02K

From patent US20210171912A1, “METHOD FOR SCALABLE SKELETAL MUSCLE LINEAGE SPECIFICATION AND CULTIVATION” (Memphis Meats, Inc., priority 2013, published 2021)
